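Protocol summary: plate cells (96-well), add compound at 5 concentrations, incubate 48 h, interpolate endpoints linearly. TGI: total growth inhibition.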
Legend:
Test in all cases: NCI tumour cell line growth inhibition, 48 h
RXF-631 renal = system: RXF-631 renal
XF 498 CNS = system: XF 498 CNS
HOP-18 NSCLC = system: HOP-18 NSCLC
DMS 114 small cell lung = system: DMS 114 small cell lung
DLD-1 colon = system: DLD-1 colon
KM20L2 colon = system: KM20L2 colon
M19-MEL melanoma = system: M19-MEL melanoma
LXFL 529 NSCLC = system: LXFL 529 NSCLC
MDA-MB-435 = system: MDA-MB-435
SNB-78 CNS = system: SNB-78 CNS
DMS 273 small cell lung = system: DMS 273 small cell lung

Row | Structure (SMILES) | TGI (MDA-MB-435) | other results
1 | CCOC(=O)CN=c1nc(SC)sc2c(C(=O)OCC)nc(Sc3ccccc3)n12 |  | TGI (RXF-631 renal): > 100 µM; TGI (XF 498 CNS): > 100 µM; TGI (HOP-18 NSCLC): > 100 µM; TGI (DMS 114 small cell lung): > 100 µM; TGI (DLD-1 colon): > 100 µM; TGI (KM20L2 colon): > 100 µM; TGI (M19-MEL melanoma): > 100 µM; TGI (LXFL 529 NSCLC): > 100 µM
2 | CC[C@]12C=CCN3CC[C@@]4(c5cc(Br)c(OC)c([N+](=O)[O-])c5N(C)[C@H]4[C@@](O)(C(=O)OC)[C@@H]1OC(C)=O)[C@@H]32 | > 100 µM | 
3 | CC(C)CCCC(C)[C@H]1CC[C@H]2n3c(nnc3-c3ccccc3)CCC[C@]12C (stereo partly specified) | 25.7 µM | 
4 | CN(CCC(=O)N1CC(CCl)c2ccc([N+](=O)[O-])cc21)CCC(=O)N1CC(CCl)c2ccc([N+](=O)[O-])cc21 (stereo unspecified) | 27.5 µM | 
5 | O=C1CC(Br)c2c(Br)sc(Br)c21 (stereo unspecified) | 39.1 µM | 
6 | Cc1ccc2c(c1)C(=O)C1(C2)Cc2c(C)cccc2C1=O (stereo unspecified) | > 100 µM | 
7 | CC(=O)C(C(=O)c1ccc(C)cc1)[C@@H]1OC(C)(C)O[C@@H]1[C@H]1COC(C)(C)O1 (stereo partly specified) | > 59.8 µM | 
8 | CN(C)CCn1c(=O)c2ccc(NCCNCCO)c3c(=O)c4ccccc4n(c1=O)c23 | 2.07 µM | 
9 | CC(C)C[C@H]1[C@@H](OCc2ccccc2)COS(=O)(=O)N1[C@H](C)c1ccccc1 | > 100 µM | 
10 | COC(=O)c1ccccc1/C=C1\Cc2c(C)c3c(c(C)c2C1=O)CCC3 | > 100 µM | 
11 | OC1=C2c3ccccc3NC2Oc2cc(F)ccc21 (stereo unspecified) | 33.9 µM | 
12 | Cc1ccc(-c2c(C#N)c(-c3ccccc3)n(NS(=O)(=O)c3ccc(C)cc3)c(=O)c2C#N)cc1 | > 100 µM | 
13 | Cc1c(N=Nc2ccccc2)c(-c2ccccc2)n(C2OC(CO)C(O)C(O)C2O)c(=S)c1C#N (stereo unspecified) | 19.5 µM | 
14 | O=C(/C=C/c1cccc([N+](=O)[O-])c1)N1CCN(CCOC(c2ccccc2)c2ccccc2)CC1 | > 100 µM | 
15 | COC(=O)/C(C)=N/NC(=S)SC | > 100 µM | 
16 | C=CC(C)(C)n1cc(C2=C3OC(=O)C(c4cn(C(C)(C)C=C)c5ccccc45)=C3OC2=O)c2ccccc21 | > 100 µM | 
17 | O=C(CSc1ncccn1)N/N=C/c1ccccc1OCc1ccccc1 | 31.5 µM | 
18 | CCN(CCCl)c1cc(CN(C)C)cc(NC(=O)c2ccc(C(=O)Nc3cc(CN(C)C)cc(N(CC)CCCl)c3)cc2)c1 | 0.48 µM | 
19 | CCCCNC(=S)Nc1nc(C(=O)NNC(=S)NCC)cs1 | > 100 µM | 
20 | CC1(n2nc(-c3ccccc3)n(-c3ccccc3)c2=O)CSC1 |  | TGI (XF 498 CNS): > 100 µM; TGI (SNB-78 CNS): > 100 µM; TGI (DMS 114 small cell lung): > 100 µM; TGI (DLD-1 colon): > 100 µM; TGI (KM20L2 colon): > 100 µM; TGI (M19-MEL melanoma): > 100 µM; TGI (DMS 273 small cell lung): > 100 µM; TGI (LXFL 529 NSCLC): > 100 µM
21 | C=CCN1C(=O)/C(=C/c2ccc(Cl)cc2)N=C1SC/C=C/C | > 100 µM | 
22 | CC(=O)OCC(OC(C)=O)C1C[C@H]2O[C@@H]3[C@H](C[C@H]2O1)O[C@@]1(C[C@@H]3C)C[C@H](C)[C@@H]2O[C@]3(C[C@@H]2O1)C[C@H]1O[C@H]2[C@H](C)[C@H]4OC(=O)C[C@H]5CC[C@@H]6OC7[C@H]8O[C@]9(CC[C@H]%10CC(=O)[C@H](CC[C@H]%11C[C@@H](C)C(=O)C(C[C@@H]4O[C@H]2C[C@H]1O3)O%11)O%10)CC8O[C@@H]7[C@@H](O9)[C@H]6O5 (stereo partly specified) | 0.0171 µM | 
23 | COc1ccc(NC(=S)Nc2cc(C)ccn2)cc1 | > 100 µM | 
24 | O=C(CC(O)(C(F)(F)F)C(F)(F)F)C(c1ccccc1)C(O)(C(F)(F)F)C(F)(F)F (stereo unspecified) | > 100 µM | 
25 | Cc1cn(C2OC(CO[Si](C)(C)C(C)(C)C)/C(=C\C#N)C2O[Si](C)(C)C(C)(C)C)c(=O)[nH]c1=O (stereo unspecified) | > 100 µM | 
26 | Cc1cc(S(=O)(=O)Nc2nc(N)nc(N3N=CCC3C)n2)c(SCC(=O)O)cc1Cl (stereo unspecified) | > 10 µM | 
27 | CCOC(=O)/C(C#N)=C/Nc1c(C)n(C)n(-c2ccccc2)c1=O | > 100 µM | 
28 | C[C@]12CC[C@H]3[C@@H](CCC4=CC(=O)CC[C@@H]43)[C@@H]1CC[C@]2(O)C(N)=O | > 100 µM | 
29 | Cc1noc(C)c1CCCOC1COc2ccccc2OCCOCCOc2ccccc2OC1 |  | TGI (XF 498 CNS): > 100 µM; TGI (SNB-78 CNS): > 100 µM; TGI (HOP-18 NSCLC): > 100 µM; TGI (DMS 114 small cell lung): > 100 µM; TGI (DLD-1 colon): > 100 µM; TGI (KM20L2 colon): > 100 µM; TGI (M19-MEL melanoma): > 100 µM; TGI (DMS 273 small cell lung): > 100 µM; TGI (LXFL 529 NSCLC): > 100 µM

Reference: PubChem BioAssay (NCI)
